Literature values in paper PMC4207555 (Drug Design, Development and Therapy, 2014).
Like-named read-outs stand apart in the source and are kept apart here.

Tests used:
[1] = in situ brain perfusion, wild-type mice; ref 47 (unpublished data)
[2] = system: microtubules; settings: read-out: stabilization of microtubules against cold-induced depolymerization (concentration producing 50% cell killing)
[3] = ref Sanofi, data on file, 2010
[4] = system: plasma protein; settings: rats; ref Sanofi, data on file, 2010
[5] = system: plasma protein; settings: rabbits; ref Sanofi, data on file, 2010
[6] = system: P-glycoprotein-expressing cell lines bearing acquired resistance; settings: range across P-glycoprotein-expressing cell lines
[7] = single-dose studies in mice, rats, and dogs; ref Sanofi, data on file, 2013
[8] = system: bone marrow; settings: ref Sanofi, data on file, 2010
[9] = system: Breast Calc18/TXT; settings: P-glycoprotein-overexpressing Calc18/TXT
[10] = not given; remark: listed apart in the source
[11] = system: human intracranial glioblastoma xenograft; settings: two models, respective HNTDs
[12] = after IV administration; ref Sanofi, data on file, 2010
[13] = system: plasma protein; settings: dogs; ref Sanofi, data on file, 2010
[14] = not given; remark: listed apart in the source
[15] = not given; remark: listed apart in the source
[16] = rats, ref Sanofi, data on file, 2010
[17] = system: HID28; settings: HID28, 20 mg/kg
[18] = system: bacterial reverse mutation; settings: ref Sanofi, data on file, 2010
[19] = male or female rats; ref Sanofi, data on file, 2010
[20] = system: plasma protein; settings: mice; ref Sanofi, data on file, 2010
[21] = humans
[22] = dogs
[23] = not given; remark: listed apart in the source
[24] = system: Breast UISO BCA-1; settings: UISO BCA-1, dose level below HNTD (9.3 mg/kg per injection)
[25] = ref Sanofi, data on file, 2010; remark: listed apart in the source
[26] = rats, ref Sanofi, data on file
[27] = dogs; ref Sanofi, data on file, 2013
[28] = system: tubulin
[29] = system: plasma protein; settings: humans; ref Sanofi, data on file, 2010
[30] = system: Prostate DU 145; settings: DU145 xenograft
[31] = mice
[32] = system: cell lines with resistance mechanisms other than P-glycoprotein overexpression
[33] = system: B16/TXT melanoma; settings: B16/TXT acquired-resistance model, no P-glycoprotein overexpression
[34] = mice, ref Sanofi, data on file; for NOEL for central neurotoxicity / NOEL for peripheral neurotoxicity: 2010
[35] = system: mCRPC that had progressed on previous docetaxel-based therapy
[36] = system: P-glycoprotein
[37] = dogs, ref Sanofi, data on file, 2010
[38] = system: pediatric sarcoma xenograft; settings: five of six models
[39] = 0–48 hours, mice bearing subcutaneous MA16/C

SMILES: CO[C@H]1C(=O)[C@]2(C)[C@@H](OC)C[C@H]3OC[C@@]3(OC(C)=O)[C@H]2[C@H](OC(=O)c2ccccc2)[C@]2(O)C[C@H](OC(=O)[C@H](O)[C@@H](NC(=O)OC(C)(C)C)c3ccccc3)C(C)=C1C2(C)C [Cabazitaxel]
- overall brain exposure relative to plasma [39]: 3.7 fold
- overall brain exposure relative to tumor tissue [39]: 2.3 fold
- time to maximum drug concentrations in tumor tissue (MA16/C-bearing mice, 40 mg/kg): ≤ 15 min
- concentration within the tumor versus plasma (after 48 hours, MA16/C-bearing mice, 40 mg/kg): 40 fold
- exposure in tumor compared with plasma (during the 48 hours following administration, 40 mg/kg): 1.6 times
- exposure in tumor compared with plasma (entire experimental period (168 hours), 40 mg/kg): 2.9 times
- volume of distribution at steady state (tumor-bearing mice, single IV administration, ref Sanofi, data on file, 2010): 8.8 L/kg
- Plasma clearance (tumor-bearing mice, single IV infusion, ref Sanofi, data on file, 2010): 28.3 mL/min/kg
- terminal half-life (tumor-bearing mice, ref Sanofi, data on file, 2010): 26 h
- brain penetration versus paclitaxel or docetaxel [1]: two- to threefold greater
- IC50 [2]: 100 to 250 nM
- in vitro chromosome aberration test [3]: increased number of polyploid cells
- Plasma protein binding [4]: 95.5%
- Plasma protein binding [5]: 91.4%
- Resistance factors [6]: 2–10
- highest non-lethal doses, times lower with cabazitaxel than with docetaxel [7]: 3- to 4 times
- in vivo rat bone marrow micronucleus test [8]: increase in micronuclei
- antitumor activity [9]: not active
- logP [10]: 3.9
- antitumor activity (increase in life span) versus docetaxel [11]: enhanced antitumor activity compared with docetaxel
- effects in CNS, respiratory, gastrointestinal, renal, and cardiovascular systems [12]: no physiologically relevant effects
- Plasma protein binding [13]: 97.1%
- pathway D (cleavage of the parent drug), share of the dose ([14]; all species including humans): < 0.3%
- excretion via the urinary route ([14]; mice, rats, and dogs): 1%–4
- excretion, % of the administered dose ([14]; mice, rats, and dogs): 91%–95
- radioactivity excreted in the feces, % of the administered dose ([14]; mice, rats, and dogs): 87%–91
- administered dose excreted unchanged ([14]; mice, rats, dogs, and humans): less than 2.5%
- population half-life, initial phase ([15]; 170 patients): 4.4 min
- population half-life, intermediate phase ([15]; 170 patients): 1.6 h
- population half-life, terminal phase ([15]; 170 patients): 95.1 h
- mean volume of distribution at steady state (population PK estimate) ([15]; median BSA 1.84 m^2): 2,640 L/m^2
- plasma clearance (population PK estimate) ([15]; median BSA 1.84 m^2): 26.4 L/h/m^2
- volume of distribution at steady state ([16]; single IV administration): 22.7 L/kg
- Plasma clearance ([16]; single IV infusion): 80 mL/min/kg
- terminal half-life [16]: 10 h
- partial remissions [17]: four out of ten
- percentage tumor volume change (treated/control mean tumor volume) ([17]; Day 35): 1.4%
- mutations in the bacterial reverse mutation (Ames) test [18]: did not induce mutations
- mating performance or fertility [19]: did not affect
- Plasma protein binding [20]: 99.3%
- pathway C (t-butyl-hydroxylation on the lateral chain), share of the dose [21]: 21%
- two O-demethylation pathways (A and B), share of the dose excreted [21]: 40%
- two O-demethylation pathways (A and B), share of the dose excreted [22]: 54%
- radioactivity excreted via the biliary route, % of the administered dose ([23]; bile-duct-cannulated male rats, within 48 hours): 65%
- pathway C (t-butyl-hydroxylation on the lateral chain), share of the dose excreted ([23]; male and female rats): 49%–55
- log cell kill [24]: 4.4
- volume of distribution at steady state ([25]; healthy mice, single IV administration): 2.5 to 3.7 L/kg
- Plasma clearance ([25]; normal mice, single IV infusion): 15 to 18.3 mL/min/kg
- terminal half-life ([25]; normal mice): 5.1 to 7.6 h
- NOEL for central neurotoxicity ([26]; single-dose, 1 min infusion, 2010): >10 mg/kg/day
- NOEL for central neurotoxicity ([26]; ten-cycle, 1 hr infusion, 2010): >10/20
- NOEL for peripheral neurotoxicity ([26]; ten-cycle, 1 hr infusion, 2010): <1 mg/kg/day
- HNLD as single dose [26]; 2013: 2.5 mg/kg
- HNLD as single dose [27]: 0.5 mg/kg
- lag time to 50% aggregation (reduction in lag time for tubulin assembly) [28]: 0 to 0.1 µmol/L
- Plasma protein binding [29]: 91.9%
- complete tumor regressions (CR) [30]: 100%
- long-term tumor-free survival (TFS) [30]: 83%
- pathway C (t-butyl-hydroxylation on the lateral chain), share of the dose [31]: 41%
- two O-demethylation pathways (A and B), share of the dose excreted [31]: 45%
- cross-resistance [32]: no cross-resistance
- antitumor activity [33]: demonstrated antitumor activity
- NOEL for central neurotoxicity ([34]; 5-day, 1 min infusion): >7 mg/kg/day
- NOEL for peripheral neurotoxicity ([34]; 5-day, 1 min infusion): 3 mg/kg/day
- NOEL for central neurotoxicity ([34]; five-cycle, 1 hr infusion): 10 mg/kg/day
- NOEL for peripheral neurotoxicity ([34]; five-cycle, 1 hr infusion): 5 mg/kg/day
- NOEL for central neurotoxicity ([34]; single-dose, 1 min infusion): 10 mg/kg/day
- NOEL for peripheral neurotoxicity ([34]; single-dose, 1 min infusion): 10 mg/kg/day
- NOEL for central neurotoxicity ([34]; single-dose, 1 hr infusion): 10 mg/kg/day
- NOEL for central neurotoxicity ([34]; weekly, 1 min infusion): 5 mg/kg/day
- NOEL for peripheral neurotoxicity ([34]; weekly, 1 min infusion): 5 mg/kg/day
- HNLD as single dose [34]; 2013: 30 mg/kg
- grade ≥3 anemia, patients [35]: 11%
- grade ≥3 diarrhea [35]: 6%
- grade ≥3 leukopenia, patients [35]: 68%
- grade ≥3 neutropenia, patients [35]: 82%
- patients who died within 30 days of the last infusion [35]: 5%
- patients with dose reduction [35]: 12%
- patients with treatment delay [35]: 28%
- peripheral neuropathy, patients [35]: 14%
- prostate-specific antigen response [35]: 39.2%
- rate of objective tumor response [35]: 14.4%
- median overall survival ([35]; plus prednisone/prednisolone): 15.1 months
- median progression-free survival ([35]; plus prednisone/prednisolone): 2.8 months
- grade 3 peripheral neuropathy, patients ([35]; three patients): 1%
- hazard ratio, death ([35]; versus mitoxantrone): 0.70
- hazard ratio, progression-free survival ([35]; versus mitoxantrone): 0.74
- reduction in the risk of death ([35]; versus mitoxantrone): 30%
- uptake across the BBB, P-glycoprotein-deficient versus control mice [36]: threefold higher
- volume of distribution at steady state ([37]; single IV administration): 3.3 to 14.5 L/kg
- Plasma clearance ([37]; single IV infusion): 41.7 to 88.3 mL/min/kg
- terminal half-life [37]: 3.0 to 4.3 h
- tumor growth inhibition and tumor regression versus equivalent doses of docetaxel [38]: significantly greater tumor growth inhibition and tumor regression
